pIC50: −log10 of the molar value. Active and inactive are the calls of the source. The calls are words filed in the database; no cut-off is given here.
Assays:
[1] = In vivo antitumor activity against mouse Lewis lung carcinoma cell line implanted in C57BL mouse assessed as tumor growth inhibition at 20 mg/kg, ip administered daily on day 7 to 14 measured after 15 days; assay type: functional; details: 360 h, time 15 day, read-out: TGI
[2] = Toxicity in C57BL mouse implanted with mouse Lewis lung carcinoma cell line assessed as reduction in body weight loss at 20 mg/kg, ip administered daily on day 7 to 14 measured after 15 days; assay type: organism-based; details: in vivo, 360 h, time 15 day
PSN1 [3] = experiment: Induction of mitochondrial damage in human PSN1 cells assessed as decrease in mitochondria matrix region electron density at IC50 incubated for 24 hrs by staining based TEM analysis; assay type: functional, cell-based
[4] = Toxicity in C57BL mouse implanted with mouse Lewis lung carcinoma cell line assessed as anorexia at 20 mg/kg, ip administered daily on day 7 to 14 measured after 15 days; assay type: organism-based; details: in vivo, 360 h, time 15 day
PSN1 [5] = experiment: Induction of apoptosis in human PSN1 cells assessed as chromatin condensation at IC50 incubated for 48 hrs by Hoechst 33258 staining based confocal microscopic analysis; assay type: functional, cell-based
[6] = biological target: [Pyruvate dehydrogenase (acetyl-transferring)] kinase isozyme 2, mitochondrial (Homo sapiens) (UniProt Q15119); experiment: Inhibition of PDK2 (unknown origin) at 1.5 uM incubated for 30 mins followed by substrate addition measured after 60 mins in presence of ATP by ADP-Glo luminescent assay relative to control; details: time 90.0 min
[7] = biological target: [Pyruvate dehydrogenase (acetyl-transferring)] kinase isozyme 3, mitochondrial (Homo sapiens) (UniProt Q15120); experiment: Inhibition of PDK3 (unknown origin) at 1.5 uM incubated for 30 mins followed by substrate addition measured after 60 mins in presence of ATP by ADP-Glo luminescent assay relative to control; details: time 90.0 min
PSN1 [8] = experiment: Induction of mitochondrial damage in human PSN1 cells assessed as decrease in mitochondria inner membrane electron density at IC50 incubated for 24 hrs by staining based TEM analysis; assay type: functional, cell-based
PSN1 [9] = experiment: Induction of reactive oxygen species production in human PSN1 cells assessed as increase in cellular hydrogen peroxide formation at 5 uM by CM-H2DCFDA staining based analysis; assay type: functional, cell-based
PSN1 [10] = experiment: Inhibition of PDK in human PSN1 cells expressing KRAS mutant assessed as increase in cellular oxygen consumption at IC50 incubated for 60 mins by fluorescence based analysis; assay type: cell-based
[11] = biological target: T1, [Pyruvate dehydrogenase (acetyl-transferring)] kinase isozyme 1, mitochondrial (Homo sapiens, UniProt Q15118); experiment: Inhibition of PDK1 (unknown origin) incubated for 30 mins followed by substrate addition measured after 60 mins in presence of ATP by ADP-Glo luminescent assay
PSN1 [12] = experiment: Antiproliferative activity against human PSN1 cells expressing KRAS mutant cultured as 3D spheroids assessed as inhibition of cell growth measured after 72 hrs by MTT assay; assay type: functional, cell-based; details: PSN1, 72 h
PSN1 [13] = experiment: Induction of apoptosis in human PSN1 cells assessed as brightly stained nuclei at IC50 incubated for 48 hrs by Hoechst 33258 staining based confocal microscopic analysis; assay type: functional, cell-based
[14] = biological target: T1, [Pyruvate dehydrogenase (acetyl-transferring)] kinase isozyme 1, mitochondrial; experiment: Inhibition of PDK1 (unknown origin) at 1.5 uM incubated for 30 mins followed by substrate addition measured after 60 mins in presence of ATP by ADP-Glo luminescent assay relative to control; details: time 90.0 min, values are per cent of control
PSN1 [15] = experiment: Induction of mitochondrial damage in human PSN1 cells assessed as increase in mitochondria substantial swelling at IC50 incubated for 24 hrs by staining based TEM analysis; assay type: functional, cell-based
Heat shock protein HSP90 [16] = biological target: T2, Heat shock protein HSP90 (Homo sapiens, UniProt P07900+P08238); experiment: Inhibition of human recombinant HSP90 at 1.5 uM incubated for 30 mins by fluorescence polarization based analysis relative to control; assay type: protein assay
Heat shock protein HSP90 [17] = biological target: T2, Heat shock protein HSP90; experiment: Inhibition of human recombinant HSP90 incubated for 30 mins by fluorescence polarization based analysis; assay type: protein assay
PSN1 [18] = experiment: Downregulation of PDHA1 phosphorylation in human PSN1 cells at IC50 incubated for 24 hrs by ELISA assay; assay type: functional, cell-based
PSN1 [19] = experiment: Antiproliferative activity against human PSN1 cells expressing KRAS mutant cultured as 2D spheroids assessed as inhibition of cell growth measured after 72 hrs by MTT assay; assay type: functional, cell-based; details: PSN1, 72 h
PSN1 [20] = experiment: Induction of reactive oxygen species production in human PSN1 cells assessed as decrease in total cellular sulfhydryls level at IC50 incubated for 24 hrs by DTNB reagent based spectrophotometric analysis; assay type: functional, cell-based
[21] = biological target: [Pyruvate dehydrogenase (acetyl-transferring)] kinase isozyme 4, mitochondrial (Homo sapiens) (UniProt Q16654); experiment: Inhibition of PDK4 (unknown origin) at 1.5 uM incubated for 30 mins followed by substrate addition measured after 60 mins in presence of ATP by ADP-Glo luminescent assay relative to control; details: time 90.0 min
PSN1 [22] = experiment: Induction of mitochondrial membrane potential loss in human PSN1 cells at IC50 incubated for 60 mins by fluorescence based analysis; assay type: functional
PSN1 [23] = experiment: Induction of mitochondrial damage in human PSN1 cells assessed as increase in disruption of cristae at IC50 incubated for 24 hrs by staining based TEM analysis; assay type: functional, cell-based
BXPC-3 [24] = experiment: Antiproliferative activity against human BXPC-3 cells expressing wild type KRAS cultured as 2D spheroids assessed as inhibition of cell growth measured after 72 hrs by MTT assay; assay type: functional, cell-based; details: BXPC-3, 72 h
PSN1 [25] = experiment: Inhibition of PDK in human PSN1 cells expressing KRAS mutant assessed as decrease in lactate production levels at IC50 incubated for 60 mins by colorimetric analysis; assay type: cell-based
BXPC-3 [26] = experiment: Antiproliferative activity against human BXPC-3 cells expressing wild type KRAS cultured as 3D spheroids assessed as inhibition of cell growth measured after 72 hrs by MTT assay; assay type: functional, cell-based; details: BXPC-3, 72 h
Lewis lung carcinoma = experiment: In vivo antitumor activity against mouse Lewis lung carcinoma cell line implanted in C57BL mouse assessed as reduction in PDHA1 phosphorylation at 20 mg/kg, ip administered daily on day 7 to 14 measured after 15 days by ELISA assay; assay type: functional, organism-based; details: time 15.0 day
[27] = In vivo antitumor activity against mouse Lewis lung carcinoma cell line implanted in C57BL mouse assessed as tumor growth inhibition at 60 mg/kg, ip administered daily on day 7 to 14 measured after 15 days; assay type: functional; details: 360 h, time 15 day, read-out: TGI

T1 sequence (Q15118 whole entry): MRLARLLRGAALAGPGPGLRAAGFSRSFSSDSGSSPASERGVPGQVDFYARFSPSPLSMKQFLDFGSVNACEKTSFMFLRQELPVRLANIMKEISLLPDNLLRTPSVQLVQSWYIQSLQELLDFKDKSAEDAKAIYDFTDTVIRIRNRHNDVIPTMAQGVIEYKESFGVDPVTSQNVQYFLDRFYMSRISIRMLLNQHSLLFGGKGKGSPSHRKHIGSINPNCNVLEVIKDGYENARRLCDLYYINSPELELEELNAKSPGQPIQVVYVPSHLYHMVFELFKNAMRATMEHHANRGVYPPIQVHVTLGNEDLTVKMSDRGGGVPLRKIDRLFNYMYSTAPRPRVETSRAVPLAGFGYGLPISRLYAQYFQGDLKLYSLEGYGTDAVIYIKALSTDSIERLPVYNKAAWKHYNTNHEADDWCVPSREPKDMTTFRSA
Sequence of [Pyruvate dehydrogenase (acetyl-transferring)] kinase isozyme 4, mitochondrial (Homo sapiens) (Q16654 whole entry, looked up): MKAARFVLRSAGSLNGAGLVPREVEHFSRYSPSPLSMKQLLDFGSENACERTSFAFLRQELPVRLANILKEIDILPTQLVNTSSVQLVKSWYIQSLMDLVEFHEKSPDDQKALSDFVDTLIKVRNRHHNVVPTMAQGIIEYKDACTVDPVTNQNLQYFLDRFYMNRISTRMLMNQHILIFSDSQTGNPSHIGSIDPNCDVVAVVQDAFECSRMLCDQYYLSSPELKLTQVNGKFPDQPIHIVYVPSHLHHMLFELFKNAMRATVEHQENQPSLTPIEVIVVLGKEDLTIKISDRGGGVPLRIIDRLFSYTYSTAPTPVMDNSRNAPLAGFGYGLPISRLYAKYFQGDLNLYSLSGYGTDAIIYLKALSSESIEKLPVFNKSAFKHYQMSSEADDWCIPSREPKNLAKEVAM
Sequence of [Pyruvate dehydrogenase (acetyl-transferring)] kinase isozyme 3, mitochondrial (Homo sapiens) (Q15120 whole entry, looked up): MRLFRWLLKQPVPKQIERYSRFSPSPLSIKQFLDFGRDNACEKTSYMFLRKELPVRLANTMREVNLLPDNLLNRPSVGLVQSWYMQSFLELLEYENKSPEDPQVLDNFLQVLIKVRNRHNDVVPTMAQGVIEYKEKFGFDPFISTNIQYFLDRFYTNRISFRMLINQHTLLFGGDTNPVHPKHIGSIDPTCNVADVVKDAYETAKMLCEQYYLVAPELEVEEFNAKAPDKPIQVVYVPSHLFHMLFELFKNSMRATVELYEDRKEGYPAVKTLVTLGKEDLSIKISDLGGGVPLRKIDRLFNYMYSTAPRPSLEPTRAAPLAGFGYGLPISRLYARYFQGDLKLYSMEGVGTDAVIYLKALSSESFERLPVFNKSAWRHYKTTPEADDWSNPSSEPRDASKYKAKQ

Row | inhibition [6] [%] | pIC50 [11] | residual activity [14] [%] | inhibition (Heat shock protein HSP90 [16]) [%] | inhibition [21] [%] | pIC50 (BXPC-3 [24]) | pIC50 (BXPC-3 [26]) | Structure (SMILES) | Activity (PSN1 [3]) | Activity (PSN1 [5]) | Activity (PSN1 [8]) | Activity (PSN1 [9]) | inhibition (PSN1 [10]) | pIC50 (PSN1 [12]) | Activity (PSN1 [13]) | Activity (PSN1 [15]) | IC50 (Heat shock protein HSP90 [17]) [nM] | Activity (PSN1 [18]) | pIC50 (PSN1 [19]) | Activity (PSN1 [20]) | inhibition (PSN1 [25]) | also measured
1 | – | – | – | – | – | 7.00 | – | Nc1ccn([C@@H]2O[C@H](CO)[C@@H](O)C2(F)F)c(=O)n1 [GEMCITABINE] | – | – | – | – | – | – | – | – | – | – | 7.70 | – | – | inhibition in vivo at 60 mg/kg [27]: 80%
2 | 100 | 7.22 | 0 | 60 | 0 | 6.70 | 5.16 | Cn1cc(-c2nnc(N)nc2-c2c[nH]c3ccc(F)cc23)c2cc(Br)cnc21 | Active | Active | Active | Active | Active | 4.95 | Active | Active | – | Active | 6.22 | Active | Active | Activity (PSN1 [22]): Active; Activity (PSN1 [23]): Active
3 | 100 | 6.68 | 60 | 40 | 60 | 7.00 | 4.61 | Cn1cc(-c2nnc(N)nc2-c2c[nH]c3ccc(Br)cc23)c2cc(Br)cnc21 | – | – | – | Active | Active | 4.41 | – | – | 1400 | Active | 5.89 | Active | Active | Activity (PSN1 [22]): Active

Row | Structure (SMILES) | inhibition [6] [%] | pIC50 [11] | residual activity [14] [%] | inhibition (Heat shock protein HSP90 [16]) [%] | inhibition [21] [%] | pIC50 (BXPC-3 [24]) | pIC50 (BXPC-3 [26]) | Activity (PSN1 [3]) | Activity (PSN1 [5]) | Activity (PSN1 [8]) | Activity (PSN1 [9]) | inhibition (PSN1 [10]) | pIC50 (PSN1 [12]) | Activity (PSN1 [13]) | Activity (PSN1 [15]) | IC50 (Heat shock protein HSP90 [17]) [nM] | Activity (PSN1 [18]) | pIC50 (PSN1 [19]) | Activity (PSN1 [20]) | inhibition (PSN1 [25]) | also measured
4 | COc1ccc2[nH]cc(-c3nnc(N)nc3-c3cn(C)c4ncc(Br)cc34)c2c1 | 100 | 7.52 | 0 | 0 | 0 | 7.00 | 5.48 | Active | Active | Active | Active | Active | 4.92 | Active | Active | 100 | Active | 6.00 | Active | Active | inhibition in vivo at 20 mg/kg [1]: 86%; Activity [2]: Non-Toxic; Activity [4]: ~ 20%; inhibition [7]: 100%; Activity (PSN1 [22]; 1 h): 45%; Activity (PSN1 [23]): Active; Activity (Lewis lung carcinoma): Active

— ChEMBL document CHEMBL5346893, “1,2,4-Amino-triazine derivatives as pyruvate dehydrogenase kinase inhibitors: Synthesis and pharmacological evaluation” (Eur J Med Chem, 2023)
